Assay: gradient 5% acetonitrile 3 min, to 50% in 2 min, to 85% in 15 min, held 3 min, 100 µL/min
Conditions: column: Zorbax Extend-C18 2.1 x 50 mm; eluents: water / acetonitrile, 0.1% formic acid
Procedure, shortened: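 The mobile phases were water and acetonitrile, each with 0.1% formic acid, pumped at 100 μL/min through a Zorbax Extend-C18 column (2.1 × 50 mm, 1.8 μm). Pure standards were injected as mixtures of ~100 molecules and detected by a quadrupole time-of-flight mass spectrometer in positive and negative ionization mode. Retention time came from computationally picked adduct peaks, each inspected by hand.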

Compound	RP-LC retention time
CCc1ccc(S(=O)(=O)c2cnc(N3CCN(c4cc(C)ccc4C)CC3)nc2N)cc1	1400 s
CC(C)n1c(=O)oc2cc(-c3noc(-c4cc(F)ccc4F)n3)ccc21	1130 s
COc1cccc(-n2c(=O)c(C(=O)Nc3ccccc3)c(O)c3cccnc32)c1	1220 s
Cc1nc(-c2cccc(F)c2)sc1CCNC(=O)Nc1ccc2c(c1)OCO2	817 s
CN(CCc1noc(-c2ccc(Cl)cc2)n1)C(=O)NCc1ccco1	868 s
COc1ccccc1-c1noc(CN2C(=O)COc3cc(Cl)ccc32)n1	974 s
COCc1c(C(=O)O)nnn1-c1ccccc1F	670 s
O=C(CCn1nnc2cc(-c3noc(Cc4ccc(Cl)cc4)n3)ccc21)N1CCCC1	921 s
Cc1nc2cc(N3CC(C(=O)NCc4ccc(Cl)cc4)CC3=O)ccc2o1 (stereo not drawn)	743 s
CO[C@H]1C(=O)N(C(C)C)[C@H]1C1CCN(S(=O)(=O)Cc2ccccc2)CC1	829 s
CCc1cccc(NS(=O)(=O)c2cc(-c3[nH]ncc3C(=O)N(C)C)oc2C)c1	718 s
CCN1C(=O)COc2cc(-c3noc(C(=O)NCC4CCCO4)n3)ccc21 (stereo not drawn)	783 s
CCCC(=O)Nc1ccc2c(c1)CN(C(=O)c1ccc(Cl)cc1)C(C(=O)N(C)C)C2 (stereo not drawn)	748 s
CCOC(=O)c1cccc(NC(=O)CCc2c(-c3ccc(Cl)cc3)nc3ccccn23)c1	739 s
O=C(Cn1ccn2nc(-c3ccc(F)cc3)c(CO)c2c1=O)NC1CCCC1	770 s
COc1ccccc1OCCN1C(=O)CCc2c(C)ncnc21	696 s
CC(C)Oc1ccc(CNC(=O)C2CCN(S(=O)(=O)c3ccc4c(c3)NC(=O)CO4)CC2)cc1	821 s
O=C(NCCc1csc(-c2ccccc2)n1)c1cccs1	860 s
Cc1cc(OCC(=O)N[C@H](C(=O)O)c2ccccc2)c2c3c(c(=O)oc2c1)CCCC3	879 s
CCOC(=O)C(C)Sc1nnc2n1CCN2c1ccc(OC)cc1 (stereo not drawn)	741 s
O=C(CN1CC=C(c2cnn(-c3ccc(F)cc3)c2)CC1)N1CCN(c2ccccc2F)CC1	748 s
Cn1nccc1-c1cccc(-c2noc(-c3cccc(Br)c3)n2)c1	1300 s

Compound	RP-LC retention time
CC(C)Cn1cc(S(=O)(=O)Nc2ccccc2F)c2cccnc21	926 s
COc1ccc(S(=O)(=O)Nc2cc(-c3cn4cccc(C)c4n3)ccc2C)cc1OC	662 s
CCCOc1ccc(-c2noc(Cc3nc(-c4ccccc4)cs3)n2)cc1	1340 s
CS(=O)(=O)N1CCC(OC2CCN(C(=O)Nc3ccccc3C(F)(F)F)CC2)CC1	768 s
CCOc1cccc(-c2noc(Cn3ccnc3)n2)c1	635 s
Cc1sc(-c2cc(C(F)(F)F)[nH]n2)cc1S(=O)(=O)NC1CCCC1	1000 s
CC1=C(C(=O)OC(C)C)C(c2cc3c(cc2Br)OCO3)NC(=O)N1 (stereo not drawn)	748 s
CC1CCCC(C)N1C(=O)CSc1nnc(-c2ccc3c(c2)OCCCO3)n1C (stereo not drawn)	780 s
CC(Cc1ccco1)NC(=O)C1CCN(Cc2cn(C)c3ccc(Cl)cc23)CC1 (stereo not drawn)	707 s
COc1ccccc1-c1nnc2sc(-c3cc(CC(C)C)[nH]n3)nn12	891 s
Cc1cc(NC(=O)c2sc(-c3cn(C)c4ncccc34)nc2C)ccc1F	979 s
CCN1C(=O)c2cccnc2Sc2cc(NC(=O)COc3ccc(F)cc3)ccc21	872 s
COc1ccc(-c2c(C)noc2NC(C)=O)cc1S(=O)(=O)Nc1ccc(C#N)cc1	710 s
CCc1cc(=O)n(CC(=O)N(CC)c2ccccc2)c(N2CCOCC2)n1	747 s
CC(NC(=O)C1=C2CCCN2c2ccccc2S1(=O)=O)c1ccccc1 (stereo not drawn)	855 s
O=C(NCc1nc(-c2ccc(N3CCCCC3)cc2)no1)c1cccs1	877 s
Cc1cccc(NC(=O)Cn2cnc3nc(N4CCC(C(=O)NC5CC5)CC4)sc3c2=O)c1	658 s
CC(=O)SCC(Cc1ccccc1)C(=O)NCC(=O)OCc1ccccc1 (stereo not drawn)	1080 s
CC(=O)N1c2ccc(S(=O)(=O)N3CCCCC3)cc2CC1C(=O)NCCN1CCCCC1 (stereo not drawn)	626 s
CCCc1nnc(NC(=O)CSc2ncc(-c3ccccc3)[nH]2)s1	632 s
COc1ccccc1-c1nc(Cn2ccnc2C)no1	584 s
Cc1cc(C(=O)N2CCC3(CCC3O)CC2)no1 (stereo not drawn)	636 s

Compound	RP-LC retention time
COc1cc(-n2c(=O)c3ccccc3n(Cc3ccccc3C#N)c2=O)cc(OC)c1OC	805 s
COc1ccc(-c2nc(-c3ccc4ncn(C(C)C)c4c3)no2)c(OC)c1	729 s
COC(=O)c1cnc(N2CCN(c3cccc(C)c3)C(C)C2)c2ccccc12 (stereo not drawn)	1040 s
COc1ccccc1CC(=O)N1CCC(Nc2ncnc3c2CCC3)C1 (stereo not drawn)	570 s
CCc1nc2cc(-c3noc(/C=C/c4ccco4)n3)ccc2o1	1090 s
CCOc1ccccc1NC(=O)N1CCCC(C)(C(=O)NCc2ccccc2C)C1 (stereo not drawn)	860 s
CCCNC(=O)C1CCN(c2ccc(SCC(=O)NCc3ccc(OC)cc3)nn2)CC1	621 s
CCOC(=O)c1cccc(NC(=O)CCc2c(-c3ccccc3)nc3ccccn23)c1	984 s
COC(=O)c1ccccc1Nc1c(-c2ccc(Br)cc2)nc2cnccn12	1130 s
COc1ccc(Cn2c(=O)n(C(C)C)c(=O)c3oc4ccccc4c32)cc1	976 s
COc1cc(Cl)ccc1C(=O)N1C[C@@H]2C[C@H](NC(=O)c3ccccc3)[C@H]1C2	759 s
Cc1ccc(N2CC(c3noc(-c4ccc(C)c(C)c4)n3)CC2=O)cc1 (stereo not drawn)	1150 s
CC(C)(C)CC(=O)N1CCC(Oc2nccnc2N2CCc3ccccc32)C1 (stereo not drawn)	1060 s
O=C(C1CCC1)N1CCc2sc(S(=O)(=O)NCc3ccccc3)cc2C1	847 s
Cc1ccc(Nc2nc(C)cc(N3CCN(C(=O)C4CCCCC4)CC3)n2)cc1	734 s
Cc1noc(C)c1C1CCCN1C(=O)c1cccc(C#N)c1 (stereo not drawn)	767 s
Cc1cccc(-n2c(=O)c3sccc3n(Cc3nc(-c4ccc(C(F)(F)F)cc4)no3)c2=O)c1	1120 s
O=C(NCc1ccc(Br)cc1)c1cn2nc(Cl)ccc2n1	882 s
CC(=O)Nc1cccc(C(C(F)(F)F)C(F)(F)F)c1	778 s
CCc1ccc(S(=O)(=O)N2CC(COC)C3(CCNCC3)C2)cc1 (stereo not drawn)	630 s
CCc1ccc(CNC(=O)C2CCCN(c3nccc(C)n3)C2)cc1 (stereo not drawn)	820 s
CCOc1ccc(CNC(=O)C2CCN(S(=O)(=O)c3cn(C(C)C)cn3)CC2)cc1OC	704 s

Compound	RP-LC retention time
COC(=O)c1cc(S(=O)(=O)N2CCCC2C(=O)NCc2ccc(F)cc2)cn1C (stereo not drawn)	799 s
CCCn1cc(C(=O)NCc2ccc(F)cc2F)c(S(=O)(=O)N2CCC(C)CC2)n1	1100 s
COc1ccc(S(=O)(=O)N2C[C@H]3CN(C(=O)Nc4ccccc4C)C[C@@H](C2)O3)cc1	771 s
CNC(=O)[C@@H]1CN(C(=O)Cn2nc(C(F)(F)F)cc2C)C[C@H]1c1n[nH]c(C)n1	618 s
O=C(NCC1CCCO1)C1CCCN(c2ncccc2-c2noc(C3CCC3)n2)C1 (stereo not drawn)	770 s
Cc1ccc2c(Nc3ccc(C)c(C)c3)c(C(=O)N3CCCCC3C)cnc2n1 (stereo not drawn)	672 s
O=C(Nc1ccc(OCc2nnc(-c3ccccc3)o2)cc1)c1cncc(Br)c1	883 s
Cn1cccc1C(=O)Nc1cnn(-c2ncc(N3CCCC3)cn2)c1	789 s
CON=C(C(=O)N[C@@H]1C(=O)N2C(C(=O)O)=C(CSc3nnnn3C)CS[C@H]12)c1csc(N)n1	621 s
CCOC(=O)c1[nH]c2ccc(OC)cc2c1NC(=O)CN(C)C	575 s
O=S(=O)(c1cc(-c2nnc(C3CC3)o2)co1)N1CCN(c2ccccc2F)CC1	986 s
CCCCC(=O)Nc1cc(C(=O)O)ccc1N(C)CCc1c(C)nn(C)c1C	596 s
Cc1cc(=O)n(CC(=O)Nc2ccccc2Cl)c(N2CCCCC2)n1	718 s
CCn1ccc2sc(C)c(C(=O)NCc3cccc(OC)c3OC)c2c1=O	814 s
CCc1noc(NC(C)=O)c1-c1ccc(OC)c(S(=O)(=O)Nc2ccc(C#N)cc2)c1	735 s
COc1ccc(S(=O)(=O)NCCCCN2CCOC(c3ccccc3)C2)c(C)c1 (stereo not drawn)	600 s
CCCn1c(=O)c(C)nc2cc(-c3noc(-c4cc(OC)cc(OC)c4)n3)ccc21	1090 s
Cc1oc2ccn(Cc3ccccc3F)c(=O)c2c1C(=O)NCc1cc(F)cc(F)c1	827 s
COc1ccc(C(C)NC(=O)Cc2c[nH]c3ncccc23)cc1 (stereo not drawn)	614 s
COc1ccc(NC(=O)c2ccccc2NC(=O)C2CCN(C(=O)C(C)(C)C)CC2)cc1	868 s
Fc1ccc(-c2nnc(Cc3nc(-c4ccc5c(c4)OCO5)no3)o2)cc1	957 s
CCN(CC)c1nc(C(=O)NCCN2CCN(C)CC2)nc2nc(C)cc(C)c12	542 s
